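Step 1: Grow cells in 96-well plates. Step 2: Expose to compound for 48 hours at 5 concentrations. Step 3: Interpolate endpoints linearly; if unreached, use highest concentration. GI50 marks 50% less growth. TGI: total growth inhibition.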

Among the test systems are HT29 colon; SF-295 CNS; NCI-H226 lung; SF-539 CNS; COLO 205 colon; HCC-2998 colon; SK-MEL-5 melanoma; NCI-H23 lung; RPMI-8226 leukemia; BT-549 breast.
What all share (experiment): NCI tumour cell line growth inhibition, 48 h

As to `CC1C/C(=C\c2ccc(O)c(O)c2)C(=O)/C(=C/c2ccc(O)c(O)c2)C1` (configuration not stated), the TGI in the test on HT29 colon worked out at 34.2 µM; in the test with SF-295 CNS it was 27.7 µM; in the test on NCI-H226 lung, 9.64 µM; in the test with SF-539 CNS it was 13 µM; with COLO 205 colon, 32.2 µM; in the test with HCC-2998 colon, 35.1 µM. In addition, the values for the TGI with SK-MEL-5 melanoma and in the test on NCI-H23 lung were 13.7 µM and 12.9 µM, respectively.
In the case of `CCOC(=O)CCC1(C(=O)O[C@@H]2C[C@H](C)CC[C@H]2C(C)C)CCCCC1=O` (some centres not stated), the TGI with HT29 colon, with SF-295 CNS, in the test with NCI-H226 lung, in the test on SF-539 CNS, with COLO 205 colon and in the test on SK-MEL-5 melanoma was greater than 100 µM each time. The TGI in the test with RPMI-8226 leukemia, in the test on BT-549 breast and in the test on NCI-H23 lung was greater than 100 µM in each case.
Turning to `CCCCCC(=O)OCC1(CO)C/C(=C/CC(C(C)C)C(C)C)C(=O)O1` (configuration not stated), the TGI in the test on HT29 colon, with SF-295 CNS, in the test with NCI-H226 lung, in the test with COLO 205 colon, with HCC-2998 colon and in the test with SK-MEL-5 melanoma was greater than 75 µM throughout. For the same compound, the TGI with BT-549 breast and with NCI-H23 lung was greater than 75 µM each time.
Regarding `CC1=NNC(N)=N/C1=C\C(Sc1ccc(Cl)cc1)c1ccc(Cl)cc1Cl` (configuration not stated), the TGI worked out at 14.2 µM with HT29 colon; 52.9 µM with SF-295 CNS; 36.2 µM in the test with NCI-H226 lung; 50.4 µM with COLO 205 colon; 17 µM with HCC-2998 colon; 40.1 µM in the test with SK-MEL-5 melanoma. Also, the TGI worked out at 61.2 µM with RPMI-8226 leukemia, 55.7 µM in the test with BT-549 breast and 29.4 µM in the test with NCI-H23 lung.
Take H-KIFKKFKTIIKKVWRIFGRF-NH2: the GI50 is 2.92 µM with HT29 colon; 2.05 µM in the test with SF-295 CNS; 2.65 µM in the test on HCC-2998 colon; 2.3 µM in the test on SK-MEL-5 melanoma; 3.11 µM with RPMI-8226 leukemia; 3.54 µM in the test on BT-549 breast. Also, the GI50 in the test with NCI-H23 lung is 2.44 µM. The TGI in the test with HT29 colon is greater than 100 µM; in the test on SF-295 CNS it was 4.68 µM; in the test on HCC-2998 colon it was 7.68 µM; in the test with SK-MEL-5 melanoma it was 5.8 µM; with RPMI-8226 leukemia, greater than 100 µM; in the test on BT-549 breast, greater than 100 µM. The compound also registered a TGI in the test on NCI-H23 lung of 7.51 µM.
As to `O=c1[nH]c(=O)c2c([nH]1)[nH]c1ccccc12`, the TGI with HT29 colon, in the test on SF-295 CNS, in the test on NCI-H226 lung, with SF-539 CNS, in the test with COLO 205 colon and in the test with SK-MEL-5 melanoma was greater than 100 µM throughout. In addition, the TGI with RPMI-8226 leukemia, in the test with BT-549 breast and in the test on NCI-H23 lung was greater than 100 µM each time.
Take `CN(C)CC(C)(C)C(=O)/C=C/c1ccccc1`: the TGI came to 33.9 µM with HT29 colon; 33.2 µM in the test with SF-295 CNS; 29.3 µM in the test on NCI-H226 lung; 32.3 µM in the test on SF-539 CNS; 26.2 µM in the test on COLO 205 colon; 30.1 µM with SK-MEL-5 melanoma. For the same compound, the TGI in the test on RPMI-8226 leukemia is 56.6 µM; in the test with NCI-H23 lung, 45.5 µM.
As to `O=C(CSCC(=O)N/N=C\c1cccc(Br)c1)N/N=C\c1cccc(Br)c1`, the TGI in the test on HT29 colon was 66.7 µM; with SF-295 CNS, 29.9 µM; in the test on NCI-H226 lung, 36.5 µM; in the test with SF-539 CNS, 50.8 µM; in the test with COLO 205 colon, greater than 100 µM; in the test on SK-MEL-5 melanoma, 42.3 µM. The TGI is 48.2 µM in the test with BT-549 breast and 30.1 µM in the test on NCI-H23 lung.
As to `NS(=O)(=O)c1ccc(NS(=O)(=O)c2ccc(NC(=O)N(c3ccccc3)c3ccccc3)cc2)cc1`, the TGI with HT29 colon is greater than 100 µM; with SF-295 CNS, greater than 100 µM; with NCI-H226 lung, greater than 100 µM; in the test with COLO 205 colon it was greater than 100 µM; with SK-MEL-5 melanoma, greater than 100 µM; with RPMI-8226 leukemia, 94.9 µM. The TGI in the test on BT-549 breast and in the test with NCI-H23 lung was greater than 100 µM throughout.
`COc1ccc(-c2nc3ncccn3c2-c2ccc(S(C)(=O)=O)cc2)cc1`: the TGI in the test with HT29 colon, in the test with SF-295 CNS, with SF-539 CNS, in the test with COLO 205 colon, with SK-MEL-5 melanoma and in the test on RPMI-8226 leukemia was greater than 100 µM in each case. In addition, the TGI with BT-549 breast and with NCI-H23 lung was greater than 100 µM in each case.
Consider `CC1[C@@H]2C[C@@H]3O[C@@]34[C@H]3CCC5Cc6nc7c(nc6C[C@@]5(C)C3(O)CC(=O)[C@@]24CO[C@]12OC(C)(C)CC2O)CC1CC[C@@H]2C3=C[C@H]4O[C@@]5(O[C@@](C)(CO)C[C@@H]5O)C(C)[C@@]4(O)[C@]3(C)[C@@H](O)CC2[C@]1(C)C7` (some centres not stated), for which the TGI was 0.0945 µM in the test with HT29 colon; 0.0164 µM in the test with SF-295 CNS; greater than 3.52 µM with NCI-H226 lung; 0.115 µM in the test on SF-539 CNS; 0.156 µM with COLO 205 colon; greater than 3.52 µM with HCC-2998 colon. Moreover, the results for the TGI in the test with SK-MEL-5 melanoma, with RPMI-8226 leukemia and in the test on NCI-H23 lung were greater than 3.52 µM, greater than 3.52 µM and 0.467 µM, respectively.
On to `CC1CC2OC(=N)C1(C#N)C2(C#N)C#N` (configuration not stated), for which the TGI was 47.7 µM in the test with HT29 colon; greater than 100 µM in the test on SF-295 CNS; greater than 100 µM in the test on NCI-H226 lung; 56.7 µM with SF-539 CNS; 24.8 µM with COLO 205 colon; 34.4 µM in the test on HCC-2998 colon. The TGI in the test with SK-MEL-5 melanoma turned out to be 22.2 µM; in the test on RPMI-8226 leukemia, 48 µM; with NCI-H23 lung, 63.7 µM.
With `Fc1sc2c(c1F)C1CCC2C1` (configuration not stated), the TGI in the test with HT29 colon, in the test with SF-295 CNS, in the test on NCI-H226 lung, with SF-539 CNS, in the test on COLO 205 colon and with HCC-2998 colon was greater than 100 µM throughout. Also, the TGI in the test on SK-MEL-5 melanoma was greater than 100 µM; in the test on RPMI-8226 leukemia it was 87.1 µM; with NCI-H23 lung it was greater than 100 µM.
Regarding `COc1ccc(Nc2ccnc3cc(Cl)ccc23)cc1CN(CCCl)CCCl`, the GI50 is 1.62 µM in the test on HT29 colon; 0.804 µM in the test on SF-295 CNS; 1.63 µM in the test with NCI-H226 lung; 1.39 µM in the test on COLO 205 colon; 1.68 µM in the test with HCC-2998 colon; 1.15 µM with RPMI-8226 leukemia. Besides, the results for the GI50 in the test on BT-549 breast and in the test with NCI-H23 lung were 1.78 µM and 1.04 µM, respectively. The TGI came to 6.42 µM with HT29 colon; 3.31 µM in the test with SF-295 CNS; 4.17 µM with NCI-H226 lung; 3.56 µM in the test on COLO 205 colon; 4.54 µM in the test on HCC-2998 colon; 4.85 µM in the test with RPMI-8226 leukemia. Also, the TGI in the test with BT-549 breast turned out to be 13 µM; with NCI-H23 lung, 3.26 µM.

For the origin of these results see PubChem BioAssay (NCI).
